{"source": "patent US5972357A", "about": "“Healthy foods and cosmetics” (Kikkoman Corporation, priority 1996, dated 1999)", "key": {"bovine lens α-crystallin": {"system": "bovine lens α-crystallin", "assay": "α-crystallin crosslinking polymerization inhibiting activity", "format": "biochemical", "settings": "0.1 mM, 500 mM D-fructose, pH 7.4, 37° C., 2 weeks", "experimental": "The effect of garcinol on bovine lens α-crystallin crosslinking polymerization reaction was evaluated. […] The gel after electrophoresis was stained with Coomassie Brilliant Blue, and the protein amounts in bands were determined with a densitometer. The crosslinking polymerization inhibiting activity of the protein was calculated from the following equation.\nProtein polymerization inhibiting activity (%)=(Ps-Pc)/Pc×100\npolymerization degree of protein=band density of polymerized protein/band density of monomer protein;\nPs: polymerization degree of protein in the presence of test substance;\nPc: polymerization degree of protein in the absence of test substance."}, "[1]": {"assay": "DPPH radical scavenging activity", "experimental": "The 1,1-diphenyl-2-picrylhydrazyl (DPPH) radical scavenging activity was tested with a garcinol preparation prepared in the similar manner as described in Referential Example 1. That is to say, a 1.0×10^-4 M solution (50% ethanolic) of DPPH was prepared, 0.0002% of a test substance was added, and the decrease of optical density at 528 nm was measured after 1 hour reaction at 25° C. for one hour. In this case, ascorbic acid was used as a standard, the decrease of the absorbance was expressed as 100, and the radical scavenging activity of the test substance was measured as equivalences to ascorbic acid. In this connection, a garcinol preparaion used as the test substance, and vitamin E and (+)-catechin were used as references."}, "[2]": {"assay": "superoxide scavenging activity test with phenazine methosulfate", "settings": "40 μM final concentration", "experimental": "The active oxygen scavenging activity was evaluated according to the superoxide scavenging activity test with phenazine methosulfate. That is to say, dihydronicotinamide adenine dinucleotide and phenazine methosulfate were first reacted in a buffer at a physiological hydrogen ion concentration. The absorbance at 560 nm of a formazan pigment produced by the reduction of Nitro Blue Tetrazolium with superoxide was measured. […] The ratio of decreases of absorbance was expressed as superoxide scavenging activity."}, "[3]": {"assay": "anti-oxidation activity in a lipid oxidation process promoted by a metal ion (copper sulfate)", "settings": "5 μM copper sulfate added; lesser ratio = stronger", "experimental": "The anti-oxidation activities was evaluated according to the method by A. Ben Aziz et al. (see Phytochemistry, 10, 1445, 1971). That is to say, an emulsion of linoleic acid and β-carotene was first prepared with Tween 20 (Sigma) and adjusted to pH 7.0 with 0.1 M trishydroxyaminomethane-hydrochloride. To the emulsion was added 0.0005% of a substance to be tested, and the mixture was reacted at 25° C.\nDuring the reaction, the color degradation of β-carotene in association with the autoxidation of linoleic acid was measured with the passage of time as the decreased value of the optical density at 460 nm with a spectrophotometer.\nThe substance to be tested was a garcinal preparation obtained in Referential Example 1, and vitamin E and (+)-catechin were used as Comparative Example. The antioxidant activity was measured as a ratio of the decreasing rate of absorbance in the presence of the substance to be tested to the decreasing rate of absorbance in the absence of the antioxidant. That is, the substance is judged to have an antioxidant activity when the ratio is less than 1, and thus it is predicated that the lesser the ratio, the stronger the antioxidant activity.\nThe oxidation process of linoleic acid in Experimental Example 1 is promoted by a metal ion. If 5 μM of copper sulfate is added to the reaction system, the color-degradation rate of β-carotene is promoted by about 30%. When garcinol was added to this system, the ratio of the decreasing rate of absorbance was 0.57. In this connection, it was 0.13 for vitamin E and 0.84 for (+)-catechin."}, "mice": {"system": "mice", "parameters": "species or system ICR/crj male mice", "settings": "mouse, in vivo", "experimental": "ICR/crj male mice (5 week-old) having a weight of 29-32 g, each group comprising 5 animals.\nToxicity test by single administration was carried out in accordance with Guidelines of the Toxicity Test Method for Pharmaceuticals (Nichi-Yaku-Shin No. 118, released on Feb. 15, 1984, Notice of Second Section Manager of Examination of Pharmaceutical Affairs Bureau in Ministry of Health and Welfare to the Managers of Hygiene Division of Prefectures).\nGarcinol was suspended into a physiological saline in a concentration of 30 mg/ml, and the suspension was administered orally to mice at a dose of 0.5 ml per 30 g of body weight (500 mg/kg of body weight) for observation for 14 days."}, "gastric ulcer": {"system": "gastric ulcer", "assay": "anti-ulcer test against indomethacin-induced gastric ulcer", "format": "in vivo, Wistar/ST male rats", "settings": "for Length of ulcer: 30 minutes before indomethacin (50 mg/kg s.c.), control 47.75 ± 6.08; for Suppression rate: indomethacin ulcer, vs. control", "experimental": "Ulcer was induced in Wistar/ST male rats having a weight of about 200 g (6 week-old) by indomethacin as a gastric ulcer inducing agent, and the anti-ulcer effects of the test samples were examined in the following six groups to which test samples were administered.\nEach group comprises six rats.\n______________________________________\nGroup 1: (control) physiological saline\nGroup 2: (comparative) cetraxate hydrochloride\nGroup 3: (the present invention) garcinol\nGroup 4: (the present invention) garcinol\nGroup 5: (the present invention) garcinol\nGroup 6: (the present invention) isogarcinol\nIn this connection, physiological saline containing 1% sodium carboxymethylcellulose was used as the control, and cetraxate hydrochloride (trade name \"Neuer®S\", Daiichi Pharmaceuticals Co., Ltd.) which is clinically used as an anti-ulcer agent was used as the comparative sample. The cetraxate hydrochloride insoluble in water was ground into fine powder with a mortar and a pestle and used as a suspension in a 1% sodium carboxymethylcellulose solution. Also, garcinol and isogarcinol in the form of fine powder were used as the suspensions in a 1% sodium carboxymethylcellulose solution in the concentrations which are the doses in the groups. In this connection, garcinol and isogarcinol used in the section of the present invention were those obtained in Referential Examples 1 and 2, respectively.\nExperiment was carried out according to the method described by Yamahara et al. (see […] ZASSHI, 114, 401, 1994) which had been slightly modified. That is to say, indomethacin (50 mg/kg) was suspended in 1% sodium carboxymethylcellulose containing 0.1% Tween 20 (Sigma) and injected subcutaneously into the back of 24 hour fasted rats in an amount of 1 ml/rat. The samples in the six sections were orally administered at 30 minutes before administration of indomethacin. After 7 hours from the administration of indomethacin, rats were bleeded to death under anesthetization with nembutal, and stomach was isolated. A phosphate buffer (10 ml) containing 10% formalin was injected into the stomach, which was cut open after 10 minutes, and the length of lesion caused in the glandular stomach portion was defined as the lesion index, which was measured in the mm unit to evaluate the anti-ulcer effect. The suppression rate (%) in Table 1 means the value in which the difference of the length (mm) of ulcer in each group subtracted from the average length, 47.75 (mm) of ulcer in the control was divided with the average length, 47.75 (mm) of ulcer in the control. The larger the value, the stronger the anti-ulcer activity."}}, "data": [{"smiles": "C=C(C)[C@@H](CC=C(C)C)C[C@@]12C[C@@H](CC=C(C)C)C(C)(C)[C@@](CC=C(C)C)(C(=O)C(C(=O)c3ccc(O)c(O)c3)=C1O)C2=O", "note": "[garcinol]", "values": [{"measurement": "protein polymerization inhibiting activity", "setting": "bovine lens α-crystallin", "result": 68, "unit": "%"}, {"measurement": "DPPH radical scavenging activity (equivalences to ascorbic acid = 100)", "setting": "[1]; 0.0002% test substance, 1.0×10^-4 M DPPH, 25° C., 1 hour, 528 nm", "result": 85}, {"measurement": "radical scavenging activity per unit weight relative to vitamin E", "setting": "[1]; per unit weight of vitamin E", "result": "about three times"}, {"measurement": "superoxide scavenging rate", "setting": "[2]", "result": 75, "unit": "%"}, {"measurement": "ratio of the decreasing rate of absorbance (antioxidant activity with metal ion)", "setting": "[3]", "result": 0.57}, {"measurement": "microscopic disorders in tissues or organs (autopsy)", "setting": "mice", "result": "no microscopic disorders in tissues or organs were observed"}, {"measurement": "Length of ulcer", "setting": "gastric ulcer; 50 mg/kg oral", "result": "5.75 ± 6.13", "unit": "mm"}, {"measurement": "Suppression rate", "setting": "gastric ulcer; 50 mg/kg oral", "result": 88.0, "unit": "%"}, {"measurement": "Length of ulcer", "setting": "gastric ulcer; 100 mg/kg oral", "result": "4.00 ± 4.32", "unit": "mm"}, {"measurement": "Suppression rate", "setting": "gastric ulcer; 100 mg/kg oral", "result": 91.6, "unit": "%"}, {"measurement": "Length of ulcer", "setting": "gastric ulcer; 200 mg/kg oral", "result": "3.00 ± 5.35", "unit": "mm"}, {"measurement": "Suppression rate", "setting": "gastric ulcer; 200 mg/kg oral", "result": 93.7, "unit": "%"}]}]}
